Assay results taken from publication PMC10816934, “Targeting the Melanocortin 1 Receptor in Melanoma: Biological Activity of α-MSH–Peptide Conjugates” (International Journal of Molecular Sciences, 2024).
Square brackets hold non-standard residues; d marks the D form. Peptide text beside a SMILES is read from it. * marks the point of attachment. Daunorubicin(13-NOCH2CO) = COc1cccc2c1C(=O)c1c(O)c3c(c(O)c1C2=O)C[C@@](O)(C(C)=NOCC(=O)*)C[C@@H]3O[C@H]1C[C@H](N)[C@H](O)[C@H](C)O1; Nle = CCCC[C@H](N)C(=O)O

What was measured:
[1] = tested on: B16 murine melanoma cell line; assay: In vitro antiproliferative activity, MTT assay; format: cell-based, mouse; conditions: ratio of IC50 values of free Dau and conjugate
Text: (§1) The following cell cultures were used for the biological evaluation of the synthetic melanoma-specific peptide–drug (Dau–α-MSH) conjugates: A2058 (human skin melanoma, CVCL_1059), M24 (human metastatic skin melanoma, CVCL_D032), OCM-1 (human ocular choroidal melanoma-1, CVCL_6934), OCM-3 (human ocular choroidal melanoma-3, CVCL_6937), WM983A (human metastatic skin melanoma, CVCL_6808), WM983B (human metastatic skin melanoma CVCL_6809), SK-MEL-202 (human skin melanoma, ATCC HTB-68) and B16 (mouse melanoma, ATCC: CRL-6475). Cells were maintained in RPMI-1640 (Lonza, Basel, Switzerland), supplied with 10% FBS (fetal bovine serum; BioSera, Nuaille, France), L-glutamine, and 1% penicillin–streptomycin (from 10 000 units penicillin and 10 mg streptomycin/mL, Gibco, Dublin, Ireland) at 37 °C in a 5% CO2 atmosphere. No mycoplasma contamination was detected in the cell cultures.
(§2) The in vitro cytostatic effect of Dau–α-MSH conjugates was determined by two different assays. The full-length Dau–α-MSH conjugates were investigated by MTT assay using human and murine melanoma cell cultures. For determination of the cytostatic effect of these conjugates, the cells were treated with the compounds at 0.8–100 μM concentration range dissolved in the corresponding serum-free media for 24 h. After incubation, the treating solutions were removed, the cells were washed two times with serum-free medium and cultured for 48 h in the appropriate serum-containing cell culture medium. On the fourth day, the MTT assay was carried out to determine the IC50 values of the compounds. IC50 is the concentration that inhibits cell proliferation by 50%. Nonlinear regression analysis was performed with Prism 6 software (GraphPad, La Jolla, CA, USA) to generate sigmoidal dose–response curves, from which the 50% inhibitory concentration (IC50) values of the compounds were calculated and presented as micromolar (µM) units. The experiments were done in triplicate, and each experiment was repeated twice.

[2] = tested on: subcutaneous B16 murine melanoma in C57BL/6 male mice; assay: In vivo antitumor effect, subcutaneous B16 melanoma allograft; conditions: conjugates 10 mg Dau content/kg
Protocol: In the first experiment, B16 murine melanoma cells were subcutaneously (s.c.) injected into side of the latero-abdominal region of 35 C57BL/6 male mice (20–28 g), which murine strain is syngeneic for the B16 melanoma tumor cell line [59, 60], 6.5 ×·10^5 cells in a volume of 200 µL M199 medium was inoculated per animal. Mice were randomized in a stratified procedure considering two main factors. The primary factor was to obtain groups with the most equal tumor sizes, the secondary factor was to have groups in which the weight of mice are the most equal. The treatment started 9 days after cell inoculation when average tumor volume was 30 mm^3. Compounds were dissolved in saline solution (Teva, Debrecen, Hungary), and administered via i.p. injection in a volume of 0.1 mL per 10 g of bodyweight. […] Animal weight and tumor volumes were measured initially when the treatment started and at periodic intervals following treatment. A digital caliper was used to measure the longest (a) and the shortest diameter (b) of a given tumor. The tumor volume was calculated using the formula V = ab^2 × π/6, whereby a and b represent the measured parameters (length and width). Termination of the experiment was 20 days after cell inoculation, i.e., 12 days after treatment started, since the average volume of the tumors in the control group reached over 1800 mm^3. The mice from all groups were sacrificed by cervical dislocation after which their tumors were harvested and weighed for antitumor effect assessment. Antitumor effect of treatments was evaluated measuring the tumor volume and calculating the percentage of how much the tumor volume grew in comparison to the starting tumor volume which was set arbitrarily for all tumors as 100% at the start of treatment.

[3] = tested on: A2058 human melanoma cell line; assay: In vitro antiproliferative activity, MTT assay; format: cell-based; conditions: ratio of IC50 values of free Dau and conjugate
Text: as §1, §2

[4] = tested on: M24 human melanoma cell line; assay: In vitro antiproliferative activity, MTT assay; format: cell-based; conditions: ratio of IC50 values of free Dau and conjugate
Text: as §1, §2

[5] = tested on: WM983B human melanoma cell line; assay: In vitro antiproliferative activity, MTT assay; format: cell-based; conditions: ratio of IC50 values of free Dau and conjugate
Text: as §1, §2

WM983B cells = assay: In vitro cytostatic effect, PrestoBlue assay; format: cell-based, human
Text: as §1
(§3) The in vitro cytostatic effect of the Dau–α-MSH conjugate with optimized sequence (Conj4) was investigated and compared with Conj2 by PrestoBlue assay using human melanoma cell cultures with different origins. For determination of the cytostatic effect of the conjugates, the cells were treated with the compounds at 0.003–200 μM concentration range dissolved in the corresponding serum-free medium for 72 h. After the treatment, the PrestoBlue assay (purchased from Invitrogen (Waltham, MA, USA) was carried out to determine the IC50 values of the compounds. Based on the IC50 values, we also determined the targeting index (TI) of the conjugates using the following equation [58]: TI=IC50neg/IC50posconjugate/IC50neg/IC50posfree drug

SK-MEL-202 cells = assay: In vitro cytostatic effect, PrestoBlue assay; format: cell-based, human
Text: as §1, §3

A2058 cells = assay: In vitro cytostatic effect, PrestoBlue assay; format: cell-based, human
Text: as §1, §3

WM983A cells = assay: In vitro cytostatic effect, PrestoBlue assay; format: cell-based, human
Text: as §1, §3

OCM-3 cells = assay: In vitro cytostatic effect, PrestoBlue assay; format: cell-based, human
Text: as §1, §3

OCM-1 cells = assay: In vitro cytostatic effect, PrestoBlue assay; format: cell-based, human
Text: as §1, §3

[6] = tested on: OCM-1 human uveal melanoma tumor in male NOD-SCID mice; assay: In vivo tumor growth inhibition, OCM-1 xenograft; parameters: species or system mouse; conditions: for Normalized liver weight, value line 1 / Normalized liver weight, value line 2 / Normalized liver weight, value line 3 / Normalized liver weight, value line 4 / Normalized liver weight, value line 5 / Normalized liver weight, value line 6 / Normalized liver weight, value line 7 / Normalized liver weight, line printed as "ave": Table S2; for Normalized liver weight, value line 1 / Normalized liver weight, value line 2 / Normalized liver weight, value line 3 / Normalized liver weight, value line 4 / Normalized liver weight, value line 5 / Normalized liver weight, value line 6 / Normalized liver weight, value line 7: single animal; for Normalized liver weight, line printed as "ave": value line 8
Protocol: In the next experiment, the murine xenograft melanoma model establishment studies were performed using 8–12-week-old male NOD-SCID mice. For selection of the most suitable tumor model, three cell lines were then inoculated subcutaneously, OCM-1, SK-MEL-202, and WM983A. Cells were injected in a 0.1 mL RPMI-1640 basic medium in a concentration of 1.5·× 10^6 cells/mL, and the tumor growth and weight of mice were monitored 2–3 times per week. Subsequently, the antitumor effects of the Dau–α-MSH conjugates were determined in a mouse xenograft melanoma model selected as described above. Once the tumor volume reached 60 mm^3, mice were randomized and assigned to different groups for each treatment: 0.9% saline as a control, free daunomycin, Conj2 and Conj4. Treatments were injected intraperitoneally every fifth day, three times in total (daunomycin dosage of 5 mg/kg in case of Conj2, 10 mg/kg for Conj4, respectively, which was determined based on the toxicity tests, and 1 mg/kg were used for free drug–MTD). The weight and tumor size of mice were monitored during the whole experiment. On Day 33, mice were euthanized, and the primary tumor, heart, lung, liver, and spleen were harvested and stored in 4% formalin (Molar Chemicals, Halásztelek, Hungary). Liver weight was measured for the calculation of the toxicity of conjugates and daunomycin.

healthy male BALB/c mice = assay: In vivo acute toxicity study on healthy mice; parameters: species or system mouse
Protocol: To determine toxicity of conjugates on healthy animals, in vivo acute toxicity study of Dau, Conj2 and Conj4 was performed. In the first experiment, adult BALB/c male mice (29–31 g) were exposed by one injection of the conjugate at the start of experiment, by intraperitoneal (i.p.) administration. A dose of 25 mg Dau content/kg was used, in a volume of 0.1 mL per mice (3 mice per condition). In the second in vivo experiment, NOD-SCID mice were exposed by four injections of the conjugates at the start of experiment, by intraperitoneal (i.p.) administration. Doses of 5, 10 and 15 mg Dau content/kg were used for the toxicity assay, at a volume of 0.1 mL per mice (3 mice per condition). The animals were kept under the conditions as described above.

[7] = change compared to control group, minus = inhibition, free Dau 1 mg/kg

CCCC[C@H](NC(=O)[C@H](CO)NC(=O)[C@H](Cc1ccc(O)cc1)NC(=O)[C@H](CO)NC(C)=O)C(=O)N[C@@H](CCC(=O)O)C(=O)N[C@@H](Cc1c[nH]cn1)C(=O)N[C@@H](Cc1ccccc1)C(=O)N[C@@H](CCCNC(=N)N)C(=O)N[C@@H](Cc1c[nH]c2ccccc12)C(=O)NCC(=O)N[C@@H](CCCCNC(=O)CON=C(C)[C@]1(O)Cc2c(O)c3c(c(O)c2[C@@H](O[C@H]2C[C@H](N)[C@H](O)[C@H](C)O2)C1)C(=O)c1c(OC)cccc1C3=O)C(=O)N1CCC[C@H]1C(=O)N[C@H](C(N)=O)C(C)C [Conj2, Ac-SYSNleEHFRWGK(Dau=Aoa)PV-NH2]
Relative Potency [1]: 0.0093 | Tumor growth inhibition based on tumor weight, in comparison to the control group ([2]; after termination (day 20), free Dau 1 mg/kg i.p.): 38.6% | Tumor weigh in % (Table S1) ([2]; change compared to control group, minus = decrease, free Dau 1 mg/kg): -38.6% | Tumor volume in % (Table S1) [2, 7]: -75.4% | Tumor volume in mm3 (Table S1) [2, 7]: -37.8% | Relative Potency [3]: 0.0125 | Relative Potency [4]: 0.0103 | Relative Potency [5]: 0.0063 | Targeting Index (TI) (WM983B cells; WM983B versus A2058, TI = (IC50neg/IC50pos conjugate)/(IC50neg/IC50pos free drug)): 2.61 | Targeting Index (TI) (SK-MEL-202 cells; SK-MEL-202 versus A2058, TI = (IC50neg/IC50pos conjugate)/(IC50neg/IC50pos free drug)): 2.74 | Targeting Index (TI) (A2058 cells; A2058 (reference cell line), TI = (IC50neg/IC50pos conjugate)/(IC50neg/IC50pos free drug)): 1.00 | Targeting Index (TI) (WM983A cells; WM983A versus A2058, TI = (IC50neg/IC50pos conjugate)/(IC50neg/IC50pos free drug)): 1.90 | Targeting Index (TI) (OCM-3 cells; OCM-3 versus A2058, TI = (IC50neg/IC50pos conjugate)/(IC50neg/IC50pos free drug)): 1.85 | Targeting Index (TI) (OCM-1 cells; OCM-1 versus A2058, TI = (IC50neg/IC50pos conjugate)/(IC50neg/IC50pos free drug)): 2.30 | Growth of the tumor reduced to % of the control size ([6]; Day 33, 5 mg/kg Dau content i.p., three treatments (days 15, 19, 23), p: 0.0056): 55% | Normalized liver weight, value line 1 [6]: 3.77% | Normalized liver weight, value line 2 [6]: 5.10% | Normalized liver weight, value line 3 [6]: 4.35% | Normalized liver weight, value line 4 [6]: 4.14% | Normalized liver weight, value line 5 [6]: 4.73% | Normalized liver weight, value line 6 [6]: 4.15% | Normalized liver weight, value line 7 [6]: 4.90% | Normalized liver weight, line printed as "ave" [6]: 4.55% | Changes in bodyweight, liver mass, general appearance and behavior (healthy male BALB/c mice; after 14 days, one i.p. injection 25 mg Dau content/kg, BALB/c male mice): no significant changes | Acute toxicity (healthy male BALB/c mice; one i.p. injection, up to 25 mg Dau content/kg, healthy BALB/c male mice, 3 mice, 14 days): does not show acute toxicity

CCCC[C@H](NC(C)=O)C(=O)N[C@@H](CCC(=O)O)C(=O)N[C@@H](Cc1c[nH]cn1)C(=O)N[C@H](Cc1ccccc1)C(=O)N[C@@H](CCCNC(=N)N)C(=O)N[C@@H](Cc1c[nH]c2ccccc12)C(=O)NCC(=O)N[C@@H](CCCCNC(=O)CON=C(C)[C@]1(O)Cc2c(O)c3c(c(O)c2[C@@H](O[C@H]2C[C@H](N)[C@H](O)[C@H](C)O2)C1)C(=O)c1c(OC)cccc1C3=O)C(N)=O [Conj4, Ac-NleEHfRWGK(Dau=Aoa)-NH2] (Ac-[Nle]EH[dF]RWGK(Daunorubicin(13-NOCH2CO))-NH2)
IC50 (WM983B cells; WM983B, PrestoBlue, 0.003–200 μM in serum-free medium 72 h, mean ± SEM of three independent experiments): 10.18 ± 0.06 µM | IC50 (SK-MEL-202 cells; SK-MEL-202, PrestoBlue, 0.003–200 μM in serum-free medium 72 h, mean ± SEM of three independent experiments): 2.06 ± 0.1 µM | IC50 (A2058 cells; A2058, PrestoBlue, 0.003–200 μM in serum-free medium 72 h, mean ± SEM of three independent experiments): 7.15 ± 0.07 µM | IC50 (WM983A cells; WM983A, PrestoBlue, 0.003–200 μM in serum-free medium 72 h, mean ± SEM of three independent experiments): 13.5 ± 0.06 µM | IC50 (OCM-3 cells; OCM-3, PrestoBlue, 0.003–200 μM in serum-free medium 72 h, mean ± SEM of three independent experiments): 25.47 ± 0.08 µM | IC50 (OCM-1 cells; OCM-1, PrestoBlue, 0.003–200 μM in serum-free medium 72 h, mean ± SEM of three independent experiments): 29.68 ± 0.06 µM | Normalized liver weight, value line 1 [6]: 5.23% | Normalized liver weight, value line 2 [6]: 4.34% | Normalized liver weight, value line 3 [6]: 4.47% | Normalized liver weight, value line 4 [6]: 4.50% | Normalized liver weight, value line 5 [6]: 5.35% | Normalized liver weight, value line 6 [6]: 4.70% | Normalized liver weight, value line 7 [6]: 5.11% | Normalized liver weight, line printed as "ave" [6]: 4.62%
